Experimental data: patent publication US8841325B2, “Immunomodulatory compounds for the restoration of vitamin D sensitivity in vitamin D resistant tumor cells” (Celgene Corporation, priority 2009, dated 2014)

Tests used:
[1] = tested on: MDA-MB-231 cells; assay: Western blot of key signalling proteins (AKT, ERK1/2, VDR); format: cell-based; conditions: 1 μM lenalidomide co-treatment with 100 nM 1,25-D3, 6 days
Experimental: More particularly, FIG. 11 illustrates the effects of co-treatment lenalidomide/1, 25-D3 on expression of key signalling proteins in MDA-MB-231 cells. […] Cells were also treated with 0.1% DMSO as a control. Whole proteins were extracted and probed for total AKT (T-AKT), phosphor-AKT (P-AKT), total ERK1/2 (T-ERK1/2), phospho-ERK1/2 (P-ERK1/2), phosphor-p38 and total p38, VDR and b-actin as a house-keeping protein. Representative blots for the three experiments are shown.

[2] = tested on: MCF-7/VD^R cells; assay: BCL-2 expression by immunoblotting, MCF-7/VD^R; format: cell-based; conditions: 1 μM lenalidomide and 100 nM 1,25-D3 alone or in combination, 6 days, FIG. 15
Experimental: Cells were also treated with 0.1% DMSO as a control. Whole cells extracts were prepared and analysed by immuoblotting BCL-2 antibody. β-actin was used as a loading control.
Cells were also treated with 0.1% DMSO a control. Whole proteins were extracted and probes for BCL-2. β-actin was used as a loading control.

[3] = tested on: MCF-7/VD^R cells; assay: Cell viability by neutral red assay, MCF-7/VD^R; format: cell-based; conditions: up to 6 days
Text: (§1) Non-treated cells were used as a control.
as §1

[4] = tested on: breast cancer cell lines; conditions: literature (Colston et al.); cited from earlier work

Structure (SMILES)	AKT and ERK1/2 activation and VDR protein expression [1]	effects on BCL-2 expression [2]	differences in viability ([3]; lenalidomide 0 μM up to 10 μM, FIG. 13, p>0.05)	differences in viability ([3]; lenalidomide 0.01-1 μM alone or in combination with 1,25-D3 0-1000 nM, FIG. 14, p>0.05)	IC50 values [4]
Nc1cccc2c1CN(C1CCC(=O)NC1=O)C2=O (centres unmarked) [Lenalidomide, 1-oxo-2-(2,6-dioxopiperidin-3-yl)-4-aminoisoindoline]	No Effect	no effects	No significant differences	No significant differences	
C=C1/C(=C\C=C2/CCC[C@]3(C)[C@@H]([C@H](C)CCCC(C)(C)O)CC[C@@H]23)C[C@@H](O)C[C@@H]1O [1,25-D3, 1α,25-dihydroxyvitamin D3]					in the nM region
